Measurements taken from patent US20150197492A1, “NOVEL INDENO[1,2-c]QUINOLIN-11-ONE DERIVATIVES, PREPARATION METHOD AND APPLICATION THEREOF” (National Defense Medical Center, priority 2014, published 2015).

How the values were obtained:
Experiment in all cases: cells
Assay type in all cases: cell-based
NCI-H460 = NCI-H460 (Non-Small Cell Lung Cancer), 10 μM, 48 hours
NCI-H23 = NCI-H23 (Non-Small Cell Lung Cancer), 10 μM, 48 hours
HL-60 (TB) = HL-60 (TB) (Leukemia), 10 μM, 48 hours
SF-539 = SF-539 (CNS Cancer), 10 μM, 48 hours
A549/ATCC = A549/ATCC (Non-Small Cell Lung Cancer), 10 μM, 48 hours
PC-3 = PC-3 (Prostate Cancer), 10 μM, 48 hours
COLO 205 = COLO 205 (Colon Cancer), 10 μM, 48 hours
BT-549 = BT-549 (Breast Cancer), 10 μM, 48 hours
MDA-MB-231/ATCC = MDA-MB-231/ATCC (Breast Cancer), 10 μM, 48 hours
NCI-H322M = NCI-H322M (Non-Small Cell Lung Cancer), 10 μM, 48 hours
SR = SR (Leukemia), 10 μM, 48 hours
M14 = M14 (Melanoma), 10 μM, 48 hours
HCT-116 = HCT-116 (Colon Cancer), 10 μM, 48 hours
SF-295 = SF-295 (CNS Cancer), 10 μM, 48 hours
CAKI-1 = CAKI-1 (Renal Cancer), 10 μM, 48 hours
OVCAR-8 = OVCAR-8 (Ovarian Cancer), 10 μM, 48 hours
OVCAR-5 = OVCAR-5 (Ovarian Cancer), 10 μM, 48 hours
NCI-H522 = NCI-H522 (Non-Small Cell Lung Cancer), 10 μM, 48 hours
TK-10 = TK-10 (Renal Cancer), 10 μM, 48 hours
SF-268 = SF-268 (CNS Cancer), 10 μM, 48 hours
OVCAR-3 = OVCAR-3 (Ovarian Cancer), 10 μM, 48 hours
CCRF-CEM = CCRF-CEM (Leukemia), 10 μM, 48 hours
HCC-2998 = HCC-2998 (Colon Cancer), 10 μM, 48 hours
DU-145 = DU-145 (Prostate Cancer), 10 μM, 48 hours
SK-MEL-5 = SK-MEL-5 (Melanoma), 10 μM, 48 hours
NCI/ADR-RES = NCI/ADR-RES (Ovarian Cancer), 10 μM, 48 hours
HOP-62 = HOP-62 (Non-Small Cell Lung Cancer), 10 μM, 48 hours
HS 578T = HS 578T (Breast Cancer), 10 μM, 48 hours
LOX IMVI = LOX IMVI (Melanoma), 10 μM, 48 hours

SMILES | growth percentage (NCI-H460) | growth percentage (NCI-H23) | growth percentage (HL-60 (TB)) | growth percentage (SF-539) | growth percentage (A549/ATCC) | growth percentage (PC-3) | growth percentage (COLO 205) | growth percentage (BT-549) | growth percentage (MDA-MB-231/ATCC) | growth percentage (NCI-H322M) | growth percentage (SR) | growth percentage (M14) | growth percentage (HCT-116) | growth percentage (SF-295) | growth percentage (CAKI-1) | growth percentage (OVCAR-8) | growth percentage (OVCAR-5) | growth percentage (NCI-H522) | growth percentage (SF-268) | growth percentage (OVCAR-3) | also measured
O=C1c2cc(Cl)ccc2-c2c(N3CCN(c4ccccc4)CC3)nc3ccccc3c21 [SJ-16, 9-Chloro-6-(4-phenylpiperazin-1-yl)-11H-indeno[1,2-c]quinolin-11-one] | 97.04% | 83.34% | 105.45% | 83.17% | 90.89% | 79.79% | 102.19% | 89.83% | 73.80% | 98.63% | 95.93% | 97.52% | 78.18% | 60.91% | 80.23% | 75.82% | 88.56% | 80.10% | 85.45% | 98.07% | growth percentage (TK-10): 115.61%; growth percentage (CCRF-CEM): 93.52%; growth percentage (HCC-2998): 106.23%; growth percentage (DU-145): 102.96%; growth percentage (SK-MEL-5): 99.23%; growth percentage (NCI/ADR-RES): 97.88%
O=C1c2cc(Cl)ccc2-c2c(N3CCN(C4CCCC4)CC3)nc3ccccc3c21 [SJ-14, 9-Chloro-6-(4-cyclopentylpiperazin-1-yl)-11H-indeno[1,2-c]quinolin-11-one] | 101.46% | 92.80% | 103.04% | 101.34% | 101.56% | 86.19% | 104.54% | 102.74% | 82.96% | 98.50% | 97.09% | 105.34% | 91.34% | 96.87% | 93.83% | 96.55% | 106.41% | 98.72% | 96.39% | 99.54% | growth percentage (HOP-62): 108.83%; growth percentage (HS 578T): 99.40%; growth percentage (CCRF-CEM): 95.17%; growth percentage (HCC-2998): 106.04%; growth percentage (DU-145): 110.73%; growth percentage (SK-MEL-5): 97.48%; growth percentage (NCI/ADR-RES): 100.39%
CC1CCN(c2nc3ccccc3c3c2-c2ccc(Cl)cc2C3=O)CC1 [SJ-6, 9-Chloro-6-(4-methylpiperidin-1-yl)-11H-indeno[1,2-c]quinolin-11-one] | 101.21% | 90.42% | 98.84% | 90.22% | 101.69% | 90.64% | 104.79% | 95.52% | 90.96% | 107.08% | 98.51% | 96.60% | 102.51% | 96.18% | 83.89% | 96.38% | 104.92% | 98.45% | 96.49% | 97.59% | growth percentage (HOP-62): 64.18%; growth percentage (HS 578T): 98.38%; growth percentage (TK-10): 134.79%; growth percentage (CCRF-CEM): 104.33%; growth percentage (HCC-2998): 102.76%; growth percentage (DU-145): 103.47%; growth percentage (SK-MEL-5): 98.52%; growth percentage (NCI/ADR-RES): 90.28%
COc1cccc(N2CCN(c3nc4ccccc4c4c3-c3ccc(Cl)cc3C4=O)CC2)c1 [SJ-20, 9-Chloro-6-(4-(3-methoxyphenyl)piperazin-1-yl)-11H-indeno[1,2-c]quinolin-11-one] | 101.76% | 87.22% | 99.09% | 83.97% | 101.22% | 72.83% | 106.63% | 101.57% | 79.81% | 91.93% | 95.05% | 105.07% | 93.02% | 90.05% | 86.59% | 83.98% | 98.22% | 79.75% | 83.89% | 104.27% | growth percentage (HOP-62): 90.22%; growth percentage (HS 578T): 71.75%; growth percentage (TK-10): 133.34%; growth percentage (CCRF-CEM): 93.78%; growth percentage (HCC-2998): 105.79%; growth percentage (DU-145): 98.98%; growth percentage (SK-MEL-5): 96.87%; growth percentage (NCI/ADR-RES): 92.82%
CNc1nc2ccccc2c2c1-c1ccc(Cl)cc1C2=O [SJ-1, 9-Chloro-6-(methylamino)-11H-indeno[1,2-c]quinolin-11-one] | 84.38% | 86.83% | 102.75% | 92.08% | 96.83% | 89.44% | 66.47% | 101.88% | 83.87% | 80.85% | 91.67% | 112.68% | 88.31% | 95.71% | 73.84% | 94.33% | 81.54% | 90.50% | 97.27% | 84.91% | growth percentage (HOP-62): 87.10%; growth percentage (LOX IMVI): 93.40%; growth percentage (HS 578T): 85.28%; growth percentage (TK-10): 65.31%; growth percentage (CCRF-CEM): 101.50%; growth percentage (HCC-2998): 57.51%; growth percentage (DU-145): 106.88%; growth percentage (SK-MEL-5): 80.96%; growth percentage (NCI/ADR-RES): 92.22%
O=C1c2cc(Cl)ccc2-c2c(N3CCSCC3)nc3ccccc3c21 [SJ-9, 9-Chloro-6-thiomorpholino-11H-indeno[1,2-c]quinolin-11-one] | 93.32% | 94.33% | 94.50% | 92.93% | 104.35% | 87.77% | 96.30% | 92.91% | 93.08% | 92.29% | 99.53% | 101.69% | 89.08% | 93.33% | 82.68% | 96.11% | 94.37% | 92.76% | 96.13% | 96.58% | growth percentage (HOP-62): 78.17%; growth percentage (LOX IMVI): 100.04%; growth percentage (HS 578T): 87.68%; growth percentage (TK-10): 121.79%; growth percentage (CCRF-CEM): 105.04%; growth percentage (HCC-2998): 103.16%; growth percentage (DU-145): 106.04%; growth percentage (SK-MEL-5): 89.52%; growth percentage (NCI/ADR-RES): 102.85%
